Molecular target: T1, histamine H4 receptor (Homo sapiens, UniProt Q9H3N8)
T1 construct: expressed in transfected cells; host or cells: HEK293SFM cells (membrane preparation)
Assay: H4 Membrane Binding Assay (3H-Histamine displacement)
Details: membranes of recombinant HEK293SFM cells, 10 nM 3H-Histamine, 1.5 hr at room temperature
Procedure, shortened: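 Membranes from HEK293SFM cells expressing human H4 (also human H1–H3, mouse H4), prepared in ice-cold 50 mM Tris-HCl pH 7.5. [3H]-histamine displacement, nonspecific binding defined with 1000× unlabeled ligand. Bound radioactivity separated on PEI-treated GF/B filters and measured by liquid scintillation counting.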

SMILES	IC50
COC(=O)c1ccc(NC(=O)N2CCc3ccc(-c4cc(N5CCN(C)CC5)nc(N)n4)cc3C2)nc1 [Example 45, Methyl 6-({[7-[2-amino-6-(4-methylpiperazin-1-yl)pyrimidin-4-yl]-3,4-dihydroisoquinolin-2(1H)-yl]carbonyl}amino)nicotinate]	60 nM
CC(NC(=O)c1ccc2c(N3CCN(C)CC3)nc(N)nc2c1)c1cccc(OCc2cccc(C#N)c2)c1 (stereo not shown) [Example 201, 2-Amino-N-(1-{3-[(3-cyanobenzyl)oxy]phenyl}ethyl)-4-(4-methylpiperazin-1-yl)quinazoline-7-carboxamide]	14 nM
CC(C)Oc1ccc(NC(=O)N2CCc3ccc(-c4cc(N5CCN(C)CC5)nc(N)n4)cc3C2)cc1 [Example 92, 7-[2-Amino-6-(4-methylpiperazin-1-yl)pyrimidin-4-yl]-N-(4-isopropoxyphenyl)-3,4-dihydroisoquinoline-2(1H)-carboxamide]	50 nM
CN1CCN(c2cc(-c3ccc4c(c3)CN(C(=O)CCc3ccccc3)CC4)nc(N)n2)CC1 [Example 101, 4-(4-Methylpiperazin-1-yl)-6-[2-(3-phenylpropanoyl)-1,2,3,4-tetrahydroisoquinolin-7-yl]pyrimidin-2-amine]	99 nM
CC(C)OC(=O)N1CCC(CC(=O)N2CCc3ccc(-c4cc(N5CCN(C)CC5)nc(N)n4)cc3C2)C1 (stereo not shown) [Example 119, Isopropyl 3-{2-[7-[2-amino-6-(4-methylpiperazin-1-yl)pyrimidin-4-yl]-3,4-dihydroisoquinolin-2(1H)-yl]-2-oxoethyl}pyrrolidine-1-carboxylate]	70 nM
CN1CCN(c2cc(-c3ccc4c(c3)CN(C(=O)OC3CCOC3)CC4)nc(N)n2)CC1 (stereo not shown) [Example 79, Tetrahydrofuran-3-yl 7-[2-amino-6-(4-methylpiperazin-1-yl)pyrimidin-4-yl]-3,4-dihydroisoquinoline-2(1H)-carboxylate]	364 nM
CN1CCN(c2nc(N)nc3cc(C(=O)NC(Cc4cccc(Oc5cc(C#N)ccc5C(F)(F)F)c4)C(=O)N(C)C)ccc23)CC1 (stereo not shown) [Example 171, 2-Amino-N-[1-{3-[5-cyano-2-(trifluoromethyl)phenoxy]benzyl}-2-(dimethylamino)-2-oxoethyl]-4-(4-methylpiperazin-1-yl)quinazoline-7-carboxamide]	13 nM
CC(NC(=O)c1ccc2c(N3CCN(C)CC3)nc(N)nc2c1)c1ccc(Oc2ccccc2)cc1 (stereo not shown) [Example 29, 2-Amino-4-(4-methylpiperazin-1-yl)-N-[1-(4-henoxyphenyl)ethyl]quinazoline-7-carboxamide]	157 nM
CN1CCN(c2cc(-c3ccc4c(c3)CN(C(=O)CC3CC3)CC4)nc(N)n2)CC1 [Example 106, 4-[2-(Cyclopropylacetyl)-1,2,3,4-tetrahydroisoquinolin-7-yl]-6-(4-methylpiperazin-1-yl)pyrimidin-2-amine]	69 nM
CN1CCN(c2nc(N)nc3cc(C(=O)NCc4cccc(OCc5cccc(C#N)c5)c4)ccc23)CC1 [Example 192, 2-amino-N-(3-(3-cyanobenzyloxy)benzyl)-4-(4-methylpiperazin-1-yl)quinazoline-7-carboxamide]	6.3 nM
CN1CCN(c2cc(-c3ccc4c(c3)CN(C(=O)COc3cccc(Cl)c3)CC4)nc(N)n2)CC1 [Example 66, 4-{2-[(3-Chlorophenoxy)acetyl]-1,2,3,4-tetrahydroisoquinolin-7-yl}-6-(4-methylpiperazin-1-yl)pyrimidin-2-amine]	44 nM
CN1CCN(c2nc(N)nc3cc(C(=O)NCc4cccc(OCc5cccc6nsnc56)c4)ccc23)CC1 [Example 195, 2-Amino-N-[3-(2,1,3-benzothiadiazol-4-ylmethoxy)benzyl]-4-(4-methylpiperazin-1-yl)quinazoline-7-carboxamide]	3.4 nM
CN1CCN(c2cc(-c3ccc4c(c3)CN(C(=O)CC(C#N)c3ccccc3)CC4)nc(N)n2)CC1 (stereo not shown) [Example 124, 4-[7-[2-Amino-6-(4-methylpiperazin-1-yl)pyrimidin-4-yl]-3,4-dihydroisoquinolin-2(1H)-yl]-4-oxo-2-phenylbutanenitrile]	36 nM
CC(C)c1ccc(CC(NC(=O)c2ccc3c(N4CCN(C)CC4)nc(N)nc3c2)C(=O)N(C)C)cc1 (stereo not shown) [Example 149, 2-Amino-N-[2-(dimethylamino)-1-(4-isopropylbenzyl)-2-oxoethyl]-4-(4-methylpiperazin-1-yl)quinazoline-7-carboxamide]	40 nM
CN1CCN(c2cc(-c3ccc4c(c3)CN(c3ccc(-c5ccc(C#N)cc5)cn3)CC4)nc(N)n2)CC1 [Example 18, 4-{6-[7-[2-Amino-6-(4-methylpiperazin-1-yl)pyrimidin-4-yl]-3,4-dihydroisoquinolin-2(1H)-yl]pyridin-3-yl}benzonitrile]	34 nM
CN1CCN(c2cc(-c3ccc4c(c3)CN(C(=O)NC(Cc3ccccc3)C(=O)N(C)C)CC4)nc(N)n2)CC1 (stereo in doubt) [Example 60, 7-[2-Amino-6-(4-methylpiperazin-1-yl)pyrimidin-4-yl]-N-[(1R)-1-benzyl-2-(dimethylamino)-2-oxoethyl]-3,4-dihydroisoquinoline-2(1H)-carboxamide]	497 nM
CC(C(=O)N1CCc2ccc(-c3cc(N4CCN(C)CC4)nc(N)n3)cc2C1)C1CCCCC1 (stereo not shown) [Example 102, 4-[2-(2-Cyclohexylpropanoyl)-1,2,3,4-tetrahydroisoquinolin-7-yl]-6-(4-methylpiperazin-1-yl)pyrimidin-2-amine]	83 nM
CN1CCN(c2cc(-c3ccc4c(c3)CN(C(=O)Nc3nc5ccccc5s3)CC4)nc(N)n2)CC1 [Example 90, 7-[2-Amino-6-(4-methylpiperazin-1-yl)pyrimidin-4-yl]-N-1,3-benzothiazol-2-yl-3,4-dihydroisoquinoline-2(1H)-carboxamide]	143 nM
CN1CCN(c2nc(N)nc3cc(C(=O)N[C@@H](Cc4ccc(-c5cncc(C(F)(F)F)c5)cc4)C(=O)N(C)C)ccc23)CC1 [Example 161, 2-Amino-N-((1S)-2-(dimethylamino)-2-oxo-1-{4-[5-(trifluoromethyl)pyridin-3-yl]benzyl}ethyl)-4-(4-methylpiperazin-1-yl)quinazoline-7-carboxamide]	31 nM

Further compounds by falling IC50, results first:

IC50	SMILES
334 nM	Cc1ccc([C@H](C)NC(=O)c2ccc3c(N4CCN(C)CC4)nc(N)nc3c2)cc1 [Example 32, 2-Amino-N-[(1S)-1-(4-methylphenyl)ethyl]-4-(4-methylpiperazin-1-yl)quinazoline-7-carboxamide]
232 nM	CN1CCN(c2cc(-c3ccc4c(c3)CN(C(=O)NCc3ccccc3)CC4)nc(N)n2)CC1 [Example 80, 7-[2-Amino-6-(4-methylpiperazin-1-yl)pyrimidin-4-yl]-N-benzyl-3,4-dihydroisoquinoline-2(1H)-carboxamide]
86 nM	CN1CCN(c2cc(-c3ccc4c(c3)CN(C(=O)CC3CCOCC3)CC4)nc(N)n2)CC1 [Example 110, 4-(4-Methylpiperazin-1-yl)-6-[2-(tetrahydro-2H-pyran-4-ylacetyl)-1,2,3,4-tetrahydroisoquinolin-7-yl]pyrimidin-2-amine]
52 nM	CN1CCN(c2nc(N)nc3cc(C(=O)N[C@@H](Cc4ccc(-c5ccccn5)cc4)C(=O)N(C)C)ccc23)CC1 [Example 160, 2-Amino-N-[(1S)-2-(dimethylamino)-2-oxo-1-(4-pyridin-2-ylbenzyl)ethyl]-4-(4-methylpiperazin-1-yl)quinazoline-7-carboxamide]
45 nM	CC(C)CC(=O)N1CCc2ccc(-c3cc(N4CCN(C)CC4)nc(N)n3)cc2C1 [Example 100, 4-[2-(3-Methylbutanoyl)-1,2,3,4-tetrahydroisoquinolin-7-yl]-6-(4-methylpiperazin-1-yl)pyrimidin-2-amine]
42 nM	COC(=O)[C@H](Cc1ccc(-c2cnn(C)c2)cc1)NC(=O)c1ccc2c(N3CCN(C)CC3)nc(N)nc2c1 [Example 140, Methyl (2S)-2-({[2-amino-4-(4-methylpiperazin-1-yl)quinazolin-7yl]carbonyl}amino)-3-[4-(1-methyl-1H-pyrazol-4-yl)phenyl]propanoate]
38 nM	CC(C)OC(=O)N1CCC(OC(=O)N2CCc3ccc(-c4cc(N5CCN(C)CC5)nc(N)n4)cc3C2)CC1 [Example 68, 1-(Isopropoxycarbonyl)piperidin-4-yl 7-[2-amino-6-(4-methylpiperazin-1-yl)pyrimidin-4-yl]-3,4-dihydroisoquinoline-2(1H)-carboxylate]
37 nM	CC(Cc1ccc(OC2CCCC2)cc1)NC(=O)c1ccc2c(N3CCN(C)CC3)nc(N)nc2c1 (stereo not shown) [Example 143, 2-Amino-N-{2-[4-(cyclopentyloxy)phenyl]-1-methylethyl}-4-(4-methylpiperazin-1-yl)quinazoline-7-carboxamide]
34 nM	Cc1ccc(C#N)c(Oc2cccc(C(C)NC(=O)c3ccc4c(N5CCN(C)CC5)nc(N)nc4c3)c2)n1 (stereo not shown) [Example 198, 2-Amino-N-(1-{3-[(3-cyano-6-methylpyridin-2-yl)oxy]phenyl}ethyl)-4-(4-methylpiperazin-1-yl)quinazoline-7-carboxamide]
28 nM	CN1CCN(c2cc(-c3ccc4c(c3)CN(C(=O)CC3CCCC3)CC4)nc(N)n2)CC1 [Example 41, 4-[2-(Cyclopentylacetyl)-1,2,3,4-tetrahydroisoquinolin-7-yl]-6-(4-methylpiperazin-1-yl)pyrimidin-2-amine]
24 nM	CC(CC(=O)N1CCc2ccc(-c3cc(N4CCN(C)CC4)nc(N)n3)cc2C1)C(F)(F)F (stereo not shown) [Example 62, 4-(4-Methylpiperazin-1-yl)-6-[2-(4,4,4-trifluoro-3-methylbutanoyl)-1,2,3,4-tetrahydroisoquinolin-7-yl]pyrimidin-2-amine]
7.2 nM	COC(=O)c1ccc(COc2cccc(CNC(=O)c3ccc4c(N5CCN(C)CC5)nc(N)nc4c3)c2)cc1 [Example 193, Methyl 4-({3-[({[2-amino-4-(4-methylpiperazin-1-yl)quinazolin-7-yl]carbonyl}amino)methyl]phenoxy}methyl)benzoate]

Reference: patent US8481732B2 (Incyte Corporation, priority 2009, dated 2013)
